Data published in patent US10765134B2, “Foodstuff containing citrus products having added 4-hydroxyflavanones” (SYMRISE AG, priority 2015, dated 2020).
Counter-ions that a name gives are not always drawn.

Test: Evaluation of taste (bitter, sour, sweet) by panellists, orange juice with and without added 4-hydroxyflavanone
Type: in vivo
Description: Masking the perception of sour and the bitterness in orange juice, which was obtained from premature fruits and/or HLB infected fruits with at least 5 ppm limonin
A commercial orange juice was used for the experiments, which according to an analysis contains 7.8 ppm limonin and was regularly evaluated as too bitter from the panellists. The panellists (n=6) thereby evaluate the 3 attributes “sweet”, “bitter” and “sour” on an unstructured scale of 0 (no taste) to 10 (strong taste). In one sample, the panellists received the orange juice alone, in a further sample, they received the orange juice which was supplemented with an amount of 4-hydroxyflavanone as listed in one of the tables. Thereby, the order was arbitrary and not known to the panellists before.

[1] = 20 ppm in the examined orange juice
[2] = 20 ppm racemic naringenin vs orange juice (7.8 ppm limonin) alone, Example 1
[3] = orange juice containing 7.8 ppm limonin + 20 ppm racemic naringenin, scale 0-10, n=6 panellists, Example 1
[4] = 30 ppm in the examined orange juice
[5] = 30 ppm racemic homoeriodictyol-sodium-salt vs orange juice (7.8 ppm limonin) alone, Example 4
[6] = 50 ppm racemic homoeriodictyol-sodium-salt vs orange juice (7.8 ppm limonin) alone, Example 3
[7] = orange juice containing 7.8 ppm limonin + 30 ppm racemic homoeriodictyol-sodium-salt, scale 0-10, n=6 panellists, Example 4
[8] = orange juice containing 7.8 ppm limonin + 50 ppm racemic homoeriodictyol-sodium-salt, scale 0-10, n=6 panellists, Example 3
[9] = 10 ppm in the examined orange juice
[10] = 10 ppm racemic eriodictyol vs orange juice (7.8 ppm limonin) alone, Example 2
[11] = B (10 ppm racemic eriodictyol) vs A (orange juice 7.8 ppm limonin alone), Example 5
[12] = orange juice containing 7.8 ppm limonin + 10 ppm racemic eriodictyol, scale 0-10, n=6 panellists, Example 2
[13] = sample B: orange juice containing 7.8 ppm limonin + 10 ppm racemic eriodictyol, scale 0-10, Example 5

O=C1C[C@@H](c2ccc(O)cc2)Oc2cc(O)cc(O)c21 (racemic) [racemic naringenin, naringenin]
effect on bitter taste (in words) [1]: clear reduction
effect on sour impression (in words) [1]: decrease
effect on sweet impression (in words) [1]: increase
Relative change Bitter [2]: −31%
Relative change Sour [2]: −25%
Relative change Sweet [2]: +30%
Evaluation (0-10) Bitter (orange juice containing 7.8 ppm limonin + 20 ppm racemic naringenin, scale 0 (no taste) to 10 (strong taste), n=6 panellists, Example 1): 3.4
Evaluation (0-10) Sour [3]: 3.3
Evaluation (0-10) Sweet [3]: 5.2

COc1cc([C@@H]2CC(=O)c3c(O)cc(O)cc3O2)ccc1O (racemic) [racemic homoeriodictyol-sodium-salt, homoeriodictyol-sodium-salt]
effect on bitter taste (in words) [4]: clear reduction
effect on sour impression (in words) [4]: decreases
effect on sweet taste (in words) [4]: does not influence
Relative change Bitter [5]: −27%
Relative change Sour [5]: −12%
Relative change Sweet [5]: +3%
effect on sour perception (in words) (50 ppm in the examined orange juice): influenced more strongly
Relative change Bitter [6]: −13%
Relative change Sour [6]: −23%
Relative change Sweet [6]: +24%
Evaluation (0-10) Bitter [7]: 3.2
Evaluation (0-10) Sour [7]: 4.1
Evaluation (0-10) Sweet [7]: 4.8
Evaluation (0-10) Bitter [8]: 4.1
Evaluation (0-10) Sour [8]: 3.3
Evaluation (0-10) Sweet [8]: 4.0

O=C1C[C@@H](c2ccc(O)c(O)c2)Oc2cc(O)cc(O)c21 (racemic) [racemic eriodictyol, eriodictyol]
effect on bitter taste (in words) [9]: strong reduction
effect on sour perception (in words) [9]: decreased
effect on sweet impression (in words) [9]: increased
Relative change Bitter [10]: −32%
Relative change Sour [10]: −20%
Relative change Sweet [10]: +28%
Relative change A/B Bitter [11]: −21%
Relative change A/B Sour [11]: −12%
Relative change A/B Sweet [11]: +40%
Evaluation (0-10) Bitter [12]: 3.2
Evaluation (0-10) Sour [12]: 4.4
Evaluation (0-10) Sweet [12]: 5.1
Evaluation (0-10) Bitter [13]: 3.9
Evaluation (0-10) Sour [13]: 4.4
Evaluation (0-10) Sweet [13]: 4.2
